The structures appear in SMILES notation. Read-outs that look alike come from different tables or passages of the source.

For one experiment, the system named is MZ-54 glioblastoma cells. Nature of the experiment: MTT cell viability assay, MZ-54 glioblastoma. Type of experiment: cell-based. Particulars: Homo sapiens, read-out: Inhibitory concentration IC50. On the procedure: U251 (formerly known as U-373 MG; ECACC 09063001), Mz54 (CVCL_M406) human glioblastoma cell lines were cultured in DMEM+GlutaMax supplemented with 10% fetal bovine serum and 1% penicillin/streptomycin mixture. The human glioma cell line Mz54 was obtained from the Dept. of Neurosurgery, University Medical Centre, Johannes Gutenberg University Mainz, Germany, where this line was isolated from a recurrent grade IV glioblastoma. U251 and Mz54 cells were used in passages between 10 and 25 after re-authentication and 40 to 55 after culture establishment, respectively. Only mycoplasma-free cell cultures were used.
[…] Afterward, 10 µL of a 5 mg/mL MTT solution in PBS was added to the cells for 3 h at 37 °C. Then, the spheres were centrifuged shortly to collect the cells on the bottom of the plate, and the medium was removed by careful pipetting for both adherently grown and floating sphere GBM cultures. Afterward, formazan was dissolved in a mixture (24:1 v:v) of isopropanol and 1 M HCl using 100 µL for adherent cells by shaking the plates for at least 20 min. The absorbance of formazan (λ = 570 nm), and background (λ = 630 nm) was measured with a microplate reader (Tecan Spark, Tecan Deutschland GmbH, Crailsheim, Germany).
(In general: Tetrazolium dyes change colour on reduction, which living cells bring about.)

The test system of a further experiment is primary astrocytes. Put plainly: MTT cell viability assay, primary astrocytes. It is filed as cell-based. Particulars: Mus musculus, Astrocyte, read-out: Inhibitory concentration IC50. On the procedure: NE-4C cells derived from the anterior brain vesicles of p53-deficient 9-day-old mouse embryos were maintained in Minimum Essential Medium (MEM; Sigma Aldrich, Taufkirchen, Germany) supplemented with 5% fetal calf serum (FCS; Invitrogen-Gibco, Carlsbad, CA, USA), 4 mM glutamine (Sigma-Aldrich, Taufkirchen, Germany) and 40 ug/mL gentamycin (Chinoin, Budapest, Hungary). For maintenance, subconfluent cultures were regularly split by trypsinization (0.05 w/v% trypsin in PBS) into poly-L-lysine-coated Petri dishes. Primary astrocytes were isolated from whole brains of neonatal (P0-P3) mice, as described earlier. In brief, meninges were removed, and the tissue pieces were subjected to enzymatic dissociation, using 0.05% w/v trypsin and 0.05% w/v DNase for 10 min at room temperature. The cells were plated onto poly-L-lysine coated plastic surfaces and grown in MEM supplemented with 10% fetal calf serum, 4 mM glutamine and 40 ug/mL gentamycin. Primary neuronal cultures were prepared from embryonic (E15–E16) mouse (CD1) forebrains, as described earlier. In brief, cell suspensions were prepared by mechanical dissociation over a nylon mesh with a pore diameter of 40–42 μm. The cells were seeded at 10^5 cells/cm^2 density onto PLL-coated surfaces. The cultures were maintained in MEM supplemented with 5% FCS, 4 mM glutamine, 40 µg/mL gentamicin and 2.5 μg/mL amphotericin B (Sigma). In co-culture experiments, U87 glioma cells were seeded onto established neuronal cultures at DIV3 in a 25,000 cell/cm^2 density.
(§1) Non-GBM cells (5 × 10^4 cells/mL, 100 µL/well) were grown in 96-well plates for 24 h. […] After the addition of 12.5 µL of a 0.5% MTT solution in PBS, the cells were incubated for 3 h at 37 °C so that the water-soluble MTT could be converted to formazan crystals. Then, the plates were centrifuged (300× g, 5 min, 4 °C), the medium withdrawn, and the formazan dissolved in 25 µL of DMSO containing 10% sodium dodecylsulfate (SDS) and 0.6% acetic acid for at least 2 h at 37 °C. In the case of the HL60 cells, after 2 h, the precipitate of formazan crystals was redissolved in a 10% solution of SDS in DMSO containing 0.6% acetic acid.

The test system of experiment [1] is KBv1^+Vbl cervix carcinoma cells. Put plainly: MTT cell viability assay, KBv1+Vbl cervix carcinoma. Type of experiment: cell-based. Particulars: Homo sapiens, KB-V1/Vbl, read-out: Inhibitory concentration IC50. The method, then: (§2) 518A2 (Department of Radiotherapy, Medical University of Vienna, Vienna, Austria) melanoma, KB-V1^Vbl (ACC-149) cervix carcinoma, MCF-7^Topo (ACC-115) breast carcinoma, HT29 (ACC-299) colon carcinoma were cultivated in Dulbecco’s Modified Eagle Medium (DMEM) supplemented with 10% fetal bovine serum and 1% antibiotic-antimycotic at 37 °C, 5% CO2, and 95% humidity. To keep MCF-7^Topo and KB-V1^Vbl cells resistant, the maximum-tolerated doses of topotecan or vinblastine were added to the cell culture medium 24 h after every passage. The human HL60 leukemia cells were obtained from the German National Resource Center for Biological Material (DSMZ), Braunschweig. Neuroectodermal stem cells NE-4C (ATCC No. CRL-2925), primary mouse astrocytes, rat glioma C6 (ATCC No. CCL-107) and human glioma U87 (ATCC No. HTB-14) were used.
as §1

Experiment [2] relates to astrocytes and neurons in primary neuronal cultures. Put plainly: Immunostaining of GFAP and βIII-tubulin in primary neuronal cultures. Type of experiment: cell-based, mouse. Particulars: 1 µM; for effect on GFAP filaments of astrocytes: 48 h exposure. On the procedure: Astroglia cells grown on poly-L-lysine-coated glass cover slips were fixed with 4% paraformaldehyde in PBS for 20 min at room temperature and then permeabilized with Triton X-100 (0.1% v/v in PBS; 5 min). Nonspecific antibodies were blocked by incubation with 3% FBS in PBS (room temperature, 1 h). α-GFAP antibody (rabbit, DAKO) was used in a dilution of 1:2000 and was visualized by anti-rabbit IgG Alexa 594 (1:1000). DAPI (4′,6-diamidino-2-phenylindole) was used for nuclei staining. Fluorescence images were captured manually on a Zeiss Axiovert 200 M microscope fitted with 20- to 60-fold zoom and a Zeiss AxioCam MRm digital camera. Further applied antibodies were tubulin III (Sigma T5076), used at a dilution of 1:1000, and Annexin V. Cy3.18 (Sigma A4963).
Figure 4 Immunostaining of primary neurons derived from E14, 5 forebrains treated with 1 µM of 1, 2 or all-trans retinoic acid (RA) plus 1. Blue: nuclei stained with DAPI; green: tubulin stained with βIII-tubulin specific antibody; red: GFAP stained with α-GFAP antibody. Fluorescence microscope Zeiss Axiovert 200 M, 63× objective, 1024 × 1024 res. Scale bar: 50 µm.

For a further experiment, the system named is 518A2 melanoma cells. Nature of the experiment: MTT cell viability assay, 518A2 melanoma. It is filed as cell-based. Particulars: Homo sapiens, read-out: Inhibitory concentration IC50. The method, then: as §2, §1

For `CC1=C2C(=CC(C)(C)[C@@H]2O)C(=O)[C@](C)(O)C12CC2` [Compound 1, illudin M], the IC50 was determined as 550 ± 160 nM with MZ-54 glioblastoma cells (MZ-54, 24 h exposure); 60 ± 10 nM in the experiment with MZ-54 glioblastoma cells (MZ-54, 48 h exposure); 1500 ± 400 nM with primary astrocytes (24 h exposure); 200 ± 30 nM with primary astrocytes (48 h exposure); 3 ± 1 nM in experiment [1] (24 h exposure); 2 nM in experiment [1] (48 h exposure). For the same compound, the IC50 in the experiment with 518A2 melanoma cells (518A2, 24 h exposure) was found to be 40 ± 10 nM; in the experiment with 518A2 melanoma cells (518A2, 48 h exposure) it was 20 ± 10 nM. The “effect on neuronal networks” value in experiment [2] (48 h) is listed as “did not completely disorganize neuronal networks”. Besides, in experiment [2], the “effect on GFAP filaments of astrocytes” value is on record as “markedly pitted”.
For the compound `CC1=C(/C=C/C(C)=C/C=C/C(C)=C/C(=O)O[C@@H]2C3=C(C)C4(CC4)[C@@](C)(O)C(=O)C3=CC2(C)C)C(C)(C)CCC1` [Compound 2, illudin M retinoate], the IC50 was 5480 ± 1200 nM in the experiment on MZ-54 glioblastoma cells (MZ-54, 48 h exposure); 45000 ± 2000 nM with primary astrocytes (24 h exposure); 33000 ± 4000 nM in the experiment on primary astrocytes (48 h exposure); 1600 ± 400 nM in experiment [1] (24 h exposure); 1200 ± 100 nM in experiment [1] (48 h exposure); 5000 ± 300 nM with 518A2 melanoma cells (518A2, 24 h exposure). The IC50 with 518A2 melanoma cells (518A2, 48 h exposure) worked out at 4000 ± 700 nM. Moreover, the “effect on GFAP filaments of astrocytes” value in experiment [2] is listed as “did not cause similar alterations to astrocytes”.

Values taken from paper PMC9408991, “Antitumor Effects of a New Retinoate of the Fungal Cytotoxin Illudin M in Brain Tumor Models” (International Journal of Molecular Sciences, 2022).
